These molecules were tested against VEGFR2 (KDR) kinase, purified cytoplasmic domain KDR protein (Homo sapiens (Human), UniProt P35968) (assay: VEGFR2 Kinase Assay). Conditions: 2.7 μM ATP, poly-Glu-Tyr (4:1) substrate, 15 minute incubation at 30° C., ELISA read at 492 nm.
Assay type: biochemical
Procedure: Biochemical KDR kinase assays were performed in 96 well microliter plates that were coated overnight with 75 μg/well of poly-Glu-Tyr (4:1) in 10 mM Phosphate Buffered Saline (PBS), pH 7.4. The coated plates were washed with 2 mLs per well PBS+0.05% Tween-20 (PBS-T), blocked by incubation with PBS containing 1% BSA, then washed with 2 mLs per well PBS-T prior to starting the reaction. […] Reactions were initiated by the addition 20 ul per well of kinase buffer containing 200-300 ng purified cytoplasmic domain KDR protein (BPS Bioscience, San Diego, Calif.). Following a 15 minute incubation at 30° C., the reactions were washed 2 mLs per well PBS-T. 100 μl of a monoclonal anti-phosphotyrosine antibody-peroxidase conjugate diluted 1:10,000 in PBS-T was added to the wells for 30 minutes. Following a 2 mLs per well wash with PBS-Tween-20, 100 μl of O-Phenylenediamine Dihydrochloride in phosphate-citrate buffer, containing urea hydrogen peroxide, was added to the wells for 7-10 minutes as a colorimetric substrate for the peroxidase. […] IC50 values for compound inhibition were calculated directly from graphs of optical density (arbitrary units) versus compound concentration following subtraction of blank values.

Chain of VEGFR2 (KDR) kinase, purified cytoplasmic domain KDR protein (P35968 786-1356): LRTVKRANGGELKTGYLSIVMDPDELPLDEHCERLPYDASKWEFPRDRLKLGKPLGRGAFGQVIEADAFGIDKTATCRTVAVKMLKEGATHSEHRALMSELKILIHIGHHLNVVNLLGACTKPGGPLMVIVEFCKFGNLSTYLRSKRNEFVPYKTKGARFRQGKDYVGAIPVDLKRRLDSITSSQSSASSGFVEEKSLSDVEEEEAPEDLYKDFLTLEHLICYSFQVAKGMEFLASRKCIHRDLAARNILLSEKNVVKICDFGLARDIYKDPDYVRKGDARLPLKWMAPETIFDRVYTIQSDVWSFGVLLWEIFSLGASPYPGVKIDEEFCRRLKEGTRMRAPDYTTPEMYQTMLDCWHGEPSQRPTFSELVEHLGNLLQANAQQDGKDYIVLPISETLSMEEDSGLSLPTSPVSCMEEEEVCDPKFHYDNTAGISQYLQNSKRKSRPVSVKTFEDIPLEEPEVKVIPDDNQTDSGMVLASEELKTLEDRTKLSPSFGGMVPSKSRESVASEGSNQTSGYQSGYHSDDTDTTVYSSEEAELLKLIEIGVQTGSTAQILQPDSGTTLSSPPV

IC50 [nM] | Molecule
> 1000 | CSc1ncc2c(n1)CCN(c1cc(C)cc(C(=O)Nc3cccc(C(F)(F)F)c3)c1)C2 [Example 140, 3-methyl-5-[2-(methylthio)-7,8-dihydropyrido[4,3-d]pyrimidin-6(5H)-yl]-N-[3-(trifluoromethyl)phenyl]benzamide]
> 1000 | CSc1ncc2c(n1)CCN(c1cc(C)cc(C(=O)Nc3cccc(C(C)C)c3)c1)C2 [Example 142, N-(3-isopropylphenyl)-3-methyl-5-[2-(methylthio)-7,8-dihydropyrido[4,3-d]pyrimidin-6(5H)-yl]benzamide]
> 1000 | Cc1ccc(NC(=O)Nc2ccc(N3CCc4ccncc4C3)cc2)cc1 [Example 165, 1-[4-(3,4-dihydro-2,7-naphthyridin-2(1H)-yl)phenyl]-3-(4-methylphenyl)urea]

Molecule | IC50 [nM]
4-(2-Methylsulfanyl-5,7-dihydro-pyrrolo[3,4-d]pyrimidin-6-yl)-pyridine-2-carboxylic acid (3-trifluoromethyl-phenyl)-amide [Example 126] | > 10000

What follows are molecules tested against PDGFRβ kinase, purified cytoplasmic domain PDGFR-b protein (Homo sapiens (Human), UniProt P09619) (assay: PDGFRβ Kinase Assay). Conditions: 36 μM ATP, poly-Glu-Tyr (4:1) substrate, 60 minute incubation at 30° C., ELISA read at 492 nm.
Chain of PDGFRβ kinase, purified cytoplasmic domain PDGFR-b protein (P09619 554-1106): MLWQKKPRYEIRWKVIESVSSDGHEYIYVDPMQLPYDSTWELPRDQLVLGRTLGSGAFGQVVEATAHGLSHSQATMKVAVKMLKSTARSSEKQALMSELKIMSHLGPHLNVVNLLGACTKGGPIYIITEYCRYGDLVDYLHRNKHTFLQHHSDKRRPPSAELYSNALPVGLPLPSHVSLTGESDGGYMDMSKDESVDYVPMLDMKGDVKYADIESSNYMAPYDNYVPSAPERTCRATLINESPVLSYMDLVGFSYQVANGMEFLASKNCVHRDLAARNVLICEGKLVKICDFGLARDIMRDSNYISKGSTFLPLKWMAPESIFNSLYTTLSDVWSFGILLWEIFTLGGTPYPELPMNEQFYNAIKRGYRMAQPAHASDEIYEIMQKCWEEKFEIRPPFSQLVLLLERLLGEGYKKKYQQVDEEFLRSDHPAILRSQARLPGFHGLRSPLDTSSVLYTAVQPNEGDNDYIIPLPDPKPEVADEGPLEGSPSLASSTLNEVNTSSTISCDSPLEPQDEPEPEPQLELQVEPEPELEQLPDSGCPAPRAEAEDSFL
Assay type: biochemical
Procedure: Biochemical PDGFRβ kinase assays were performed in 96 well microtiter plates that were coated overnight with 75 μg of poly-Glu-Tyr (4:1) in 10 mM Phosphate Buffered Saline (PBS), pH 7.4. The coated plates were washed with 2 mLs per well PBS+0.05% Tween-20 (PBS-T), blocked by incubation with PBS containing 1% BSA, then washed with 2 mLs per well PBS-T prior to starting the reaction. Reactions were carried out in 100 μL reaction volumes containing 36 μM ATP in kinase buffer (50 mM Hepes buffer pH 7.4, 20 mM MgCl2, 0.1 mM MnCl2 and 0.2 mM Na3VO4). Test compounds were reconstituted in 100% DMSO and added to the reaction to give a final DMSO concentration of 5%. Reactions were initiated by the addition 20 ul per well of kinase buffer containing 200-300 ng purified cytoplasmic domain PDGFR-b protein (Millipore). Following a 60 minute incubation at 30° C., the reactions were washed 2 mLs per well PBS-T. 100 μl of a monoclonal anti-phosphotyrosine antibody-peroxidase conjugate diluted 1:10,000 in PBS-T was added to the wells for 30 minutes. Following a 2 mLs per well wash with PBS-Tween-20, 100 μl of O-Phenylenediamine Dihydrochloride in phosphate-citrate buffer, containing urea hydrogen peroxide, was added to the wells for 7-10 minutes as a colorimetric substrate for the peroxidase. The reaction was terminated by the addition of 100 μl of 2.5N H2SO4 to each well and read using a microplate ELISA reader set at 492 nm. IC50 values for compound inhibition were calculated directly from graphs of optical density (arbitrary units) versus compound concentration following subtraction of blank values. […]

IC50 [nM] | Molecule
54 | CC(C)c1cccc(NC(=O)c2cccc(N3CCc4nc(N)ncc4C3)c2)c1 [Example 2, 3-(2-amino-7,8-dihydropyrido[4,3-d]pyrimidin-6(5H)-yl)-N-(3-isopropylphenyl)benzamide]
116 | Cc1cccc(NC(=O)c2cccc(N3CCc4nc(N)ncc4C3)c2)c1 [Example 3, 3-(2-amino-7,8-dihydropyrido[4,3-d]pyrimidin-6(5H)-yl)-N-(3-methylphenyl)benzamide]
109 | CC(C)(C)c1ccc(NC(=O)c2cccc(N3CCc4nc(N)ncc4C3)c2)cc1 [Example 4, 3-(2-amino-7,8-dihydropyrido[4,3-d]pyrimidin-6(5H)-yl)-N-(4-tert-butylphenyl)benzamide]
47 | Nc1ncc2c(n1)CCN(c1cccc(C(=O)Nc3cccc(C(F)(F)F)c3)c1)C2 [Example 5, 3-(2-amino-7,8-dihydropyrido[4,3-d]pyrimidin-6(5H)-yl)-N-[3-(trifluoromethyl)phenyl]benzamide]
90 | Cc1ccc(NC(=O)c2cccc(N3CCc4nc(N)ncc4C3)c2)cc1 [Example 6, 3-(2-amino-7,8-dihydropyrido[4,3-d]pyrimidin-6(5H)-yl)-N-(4-methylphenyl)benzamide]
> 10000 | CCCCNC(=O)c1cccc(N2CCc3nc(N)ncc3C2)c1 [Example 16, 3-(2-amino-7,8-dihydropyrido[4,3-d]pyrimidin-6(5H)-yl)-N-butylbenzamide]
246 | CC(C)(C)C1CCC(NC(=O)c2cccc(N3CCc4nc(N)ncc4C3)c2)CC1 (centres unmarked) [Example 17, 3-(2-amino-7,8-dihydropyrido[4,3-d]pyrimidin-6(5H)-yl)-N-(4-tert-butylcyclohexyl)benzamide]
602 | Nc1ncc2c(n1)CCN(c1cccc(C(=O)NCC3CCCCC3)c1)C2 [Example 18, 3-(2-amino-7,8-dihydropyrido[4,3-d]pyrimidin-6(5H)-yl)-N-(cyclohexylmethyl)benzamide]
> 10000 | Nc1ncc2c(n1)CCN(c1cccc(C(=O)NC3CCCC3)c1)C2 [Example 19, 3-(2-amino-7,8-dihydropyrido[4,3-d]pyrimidin-6(5H)-yl)-N-cyclopentylbenzamide]
> 10000 | Cc1cccc(NC(=O)c2cccc(N3CCc4nc(N)ncc4C3)n2)c1 [Example 37, 6-(2-amino-7,8-dihydropyrido[4,3-d]pyrimidin-6(5H)-yl)-N-(3-methylphenyl)pyridine-2-carboxamide]
273 | Cc1cc(C(=O)Nc2cccc(C(F)(F)F)c2)cc(N2CCc3nc(N)ncc3C2)c1 [Example 148, 3-(2-amino-7,8-dihydropyrido[4,3-d]pyrimidin-6(5H)-yl)-5-methyl-N-[3-(trifluoromethyl)phenyl]benzamide]
30 | Cc1ccc(C(=O)Nc2cccc(C(C)C)c2)cc1N1CCc2nc(N)ncc2C1 [Example 149, 3-(2-amino-7,8-dihydropyrido[4,3-d]pyrimidin-6(5H)-yl)-N-(3-isopropylphenyl)-4-methylbenzamide]
59 | Cc1cc(C(=O)Nc2cccc(C(C)C)c2)cc(N2CCc3nc(N)ncc3C2)c1 [Example 150, 3-(2-amino-7,8-dihydropyrido[4,3-d]pyrimidin-6(5H)-yl)-N-(3-isopropylphenyl)-5-methylbenzamide]
> 10000 | O=C(Nc1ccc(N2CCc3ccncc3C2)cc1)c1cccc(C(F)(F)F)c1 [Example 162, N-[4-(3,4-dihydro-2,7-naphthyridin-2(1H)-yl)phenyl]-3-(trifluoromethyl)benzamide]
1560 | Cc1cccc(NC(=O)Nc2ccc(N3CCc4ccncc4C3)cc2)c1 [Example 163, 1-[4-(3,4-dihydro-2,7-naphthyridin-2(1H)-yl)phenyl]-3-(3-methylphenyl)urea]
> 10000 | O=C(Nc1ccccc1)Nc1ccc(N2CCc3ccncc3C2)cc1 [Example 164, 1-[4-(3,4-dihydro-2,7-naphthyridin-2(1H)-yl)phenyl]-3-phenylurea]
> 1000 | Cc1ccc(NC(=O)Nc2ccc(N3CCc4ccncc4C3)cc2)cc1 [Example 165, 1-[4-(3,4-dihydro-2,7-naphthyridin-2(1H)-yl)phenyl]-3-(4-methylphenyl)urea]
36 | Cc1cccc(NC(=O)Nc2ccc(N3CCc4ccncc4C3)c(C)c2)c1 [Example 166, 1-[4-(3,4-dihydro-2,7-naphthyridin-2(1H)-yl)-3-methylphenyl]-3-(3-methylphenyl)urea]
1050 | Cc1cccc(NC(=O)Nc2ccc(N3CCc4ccncc4C3)cc2C)c1 [Example 167, 1-[4-(3,4-dihydro-2,7-naphthyridin-2(1H)-yl)-2-methylphenyl]-3-(3-methylphenyl)urea]
40 | CC(C)c1cccc(NC(=O)c2cccc(N3CCc4ccncc4C3)c2)c1 [Example 168, 3-(3,4-dihydro-2,7-naphthyridin-2(1H)-yl)-N-(3-isopropylphenyl)benzamide]
15 | COC(=O)c1cncc2c1CCN(c1cccc(C(=O)Nc3cccc(C(C)C)c3)c1)C2 [Example 169, Methyl 7-(3-{[(3-isopropylphenyl)amino]carbonyl}phenyl)-5,6,7,8-tetrahydro-2,7-naphthyridine-4-carboxylate]
61 | Nc1ncc2c(n1)CCN(c1cccc(C(=O)Nc3ccc(F)c(C(F)(F)F)c3)c1)C2 [Example 176, 3-(2-amino-7,8-dihydropyrido[4,3-d]pyrimidin-6(5H)-yl)-N-[4-fluoro-3-(trifluoromethyl)phenyl]benzamide]

— patent US8889870B2, “Kinase inhibitors” (Allergan, Inc., priority 2012, dated 2014)
